Experiments:
[1] = system: Pseudomonas aeruginosa; assay: Antimicrobial activity against Pseudomonas aeruginosa ATCC 9027 assessed as inhibition of microbial growth incubated for 64 hrs by broth-microdilution assay; assay type: functional
[2] = system: Pseudomonas aeruginosa; assay: Antimicrobial activity against Pseudomonas aeruginosa ATCC 9027 assessed as inhibition zone; assay type: functional; conditions: time 64 hrs
[3] = system: Klebsiella pneumoniae; assay: Antimicrobial activity against Klebsiella pneumoniae ATCC 13883 assessed as inhibition zone; assay type: functional
[4] = system: Escherichia coli; assay: Antimicrobial activity against Escherichia coli ATCC 8739 assessed as inhibition of microbial growth incubated for 64 hrs by broth-microdilution assay; assay type: functional
[5] = system: Klebsiella pneumoniae; assay: Antimicrobial activity against Klebsiella pneumoniae ATCC 13883 assessed as inhibition of microbial growth incubated for 64 hrs by broth-microdilution assay; assay type: functional
[6] = system: Salmonella typhimurium; assay: Antimicrobial activity against Salmonella typhimurium ATCC 14028 assessed as inhibition of microbial growth incubated for 64 hrs by broth-microdilution assay; assay type: functional, Salmonella enterica subsp. enterica serovar Typhimurium; conditions: Salmonella enterica

MIC50 [1] [µg/mL]	MIC50 [4] [µg/mL]	MIC50 [5] [µg/mL]	MIC50 [6] [µg/mL]	Compound	inhibition zone (IZ) [2]	inhibition zone (IZ) [3]
4	≥ 16	≥ 16	4	Cc1c(COc2cccc(CN3CCCC3C(=O)NO)c2)cccc1-c1ccccc1 (stereo not given)	<=6 mm	7.2 mm
4	≥ 16	2	8	Cc1c(CN2CCC(C(=O)NC(CO)C(=O)NO)CC2)cccc1-c1ccccc1 (stereo not given)	10.1 mm	11.6 mm
1	2	1	4	COc1cc(OCc2cccc(-c3ccccc3)c2C)cc(OC)c1CNC(C(=O)NO)C(C)O (stereo not given)	8.9 mm	9.4 mm
1	2	1	≥ 16	COc1cc(OCc2cccc(-c3ccccc3)c2C)cc(OC)c1CN1CCCC1C(=O)NO (stereo not given)	9.1 mm	11.3 mm
≥ 16	8	4	4	Cc1c(COc2cccc(CNC(C(=O)NO)C(C)C)c2)cccc1-c1ccccc1 (stereo not given)	6.6 mm	8.6 mm
8	4	≥ 16	≥ 16	COc1cc(OCc2cccc(-c3ccccc3)c2C)cc(OC)c1CNC(C(=O)NO)C(C)C (stereo not given)	6.3 mm	<=6 mm
1	2	0.5	1	Cc1c(CN2CCC(C(=O)NC(C(=O)NO)C(C)O)CC2)cccc1-c1ccccc1 (stereo not given)	14.1 mm	15.8 mm
4	≥ 16	8	4	COc1cc(OCc2cccc(-c3ccccc3)c2C)cc(OC)c1CNC(CO)C(=O)NO (stereo not given)	8.1 mm	<=6 mm
8	2	4	4	Cc1c(CN2CCC(C(=O)NC(C(=O)NO)C(C)C)CC2)cccc1-c1ccccc1 (stereo not given)	<=6 mm	9.5 mm

Compound	MIC50 [1] [µg/mL]	MIC50 [4] [µg/mL]	MIC50 [5] [µg/mL]	MIC50 [6] [µg/mL]	inhibition zone (IZ) [2]	inhibition zone (IZ) [3]
CCn1cc(C(=O)O)c(=O)c2cc(F)c(N3CCNCC3)cc21 [NORFLOXACIN]	1	0.5	1	2	14.8 mm	15.9 mm

Source: ChEMBL document CHEMBL6153126, “Design, Synthesis, and Activity Evaluation of Novel Bifenamide Dual-Target Antibacterial Inhibitors and Carrier Based on Infectious Microenvironment” (J Med Chem, 2025)
